Several values for one entry are separate records, joined by “and”; a condition that tells them apart may be missing. Identical values can stand only once.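 Five compound concentrations were applied to cells in 96-well plates for 48 hours; endpoints were derived by simple linear interpolation of the resulting dose-response curve. The concentration for 50% growth inhibition is given as GI50. TGI: total growth inhibition.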
Assays:
Experiment in all cases: inhibition of tumour cell growth, NCI panel, 48 h
NCI/ADR-RES ovarian = test system: NCI/ADR-RES ovarian
SF-539 CNS = test system: SF-539 CNS
786-0 renal = test system: 786-0 renal
SNB-19 CNS = test system: SNB-19 CNS
MDA-N = test system: MDA-N
IGROV1 ovarian = test system: IGROV1 ovarian
NCI-H460 lung = test system: NCI-H460 lung
SF-268 CNS = test system: SF-268 CNS
HCT-15 colon = test system: HCT-15 colon
T-47D breast = test system: T-47D breast

| Structure (SMILES) | TGI (NCI/ADR-RES ovarian) | TGI (SF-539 CNS) | TGI (786-0 renal) | TGI (SNB-19 CNS) | TGI (MDA-N) | TGI (IGROV1 ovarian) | TGI (NCI-H460 lung) | TGI (SF-268 CNS) | TGI (HCT-15 colon) | TGI (T-47D breast) | GI50 (NCI/ADR-RES ovarian) | GI50 (SF-539 CNS) | GI50 (SNB-19 CNS) | GI50 (NCI-H460 lung) | GI50 (SF-268 CNS) | GI50 (HCT-15 colon) |
| --- | --- | --- | --- | --- | --- | --- | --- | --- | --- | --- | --- | --- | --- | --- | --- | --- |
| CC(C)(C)[Si](C)(C)OCc1cccc(OCCOc2cccc(CO[Si](C)(C)C(C)(C)C)c2[N+](=O)[O-])c1[N+](=O)[O-] | > 100 µM | > 100 µM | > 100 µM | > 100 µM | > 100 µM | > 100 µM | > 100 µM | > 100 µM | > 100 µM | > 100 µM |  |  |  |  |  |  |
| CN1CC2=C(NC(=S)NC2c2ccccc2)/C(=C/c2ccccc2)C1 (stereo unspecified) | > 100 µM | > 100 µM | > 100 µM | > 100 µM | > 100 µM | > 100 µM | > 100 µM | > 100 µM | > 100 µM | > 100 µM |  |  |  |  |  |  |
| C/C(=N\Nc1nc2cc(C(F)(F)F)ccc2s1)c1ccccn1 | 1.48 µM | 14.3 µM | 5.5 µM | 13.3 µM | 14.7 µM | 3.99 µM | 22.3 µM | 3.19 µM | > 38.9 µM | 15.4 µM |  |  |  |  |  |  |
| CN(C)Cc1cc(C(=O)/C=C/c2ccccc2)cc(CN(C)C)c1O | > 100 µM | 46.5 µM | > 100 µM | > 100 µM | 35.7 µM | > 100 µM | 44.8 µM | > 100 µM | > 100 µM | > 100 µM |  |  |  |  |  |  |
| Cn1c(=O)oc2nc(-c3ccccc3)cc(C(F)(F)F)c21 | > 100 µM | > 100 µM | > 100 µM | > 100 µM | > 100 µM | > 100 µM | > 100 µM | > 100 µM | > 100 µM | > 100 µM |  |  |  |  |  |  |
| Cc1nn(-c2ccccc2)c(C)c1/C=N/N=C1\S/C(=C\c2ccc(Cl)cc2)C(=O)N1c1ccccc1 | > 100 µM | > 100 µM | 7.89 µM | > 100 µM | > 100 µM | > 100 µM | > 100 µM | > 100 µM | > 100 µM | > 100 µM |  |  |  |  |  |  |
| CC1=C2C(=CO[C@H](C)[C@H]2C)C(=O)C(C(=O)O)=C1O | 79.4 µM and 152 µM | 30.3 µM and 59.2 µM | 62.7 µM | 55.6 µM and > 67.7 µM | 72.2 µM | 69.6 µM and 49.4 µM | > 90.1 µM and 149 µM | 59.2 µM and 38.2 µM | 60.3 µM and 40.8 µM | > 94.5 µM | 26.9 µM | 23.9 µM | 27.9 µM | 30.1 µM and 73 µM | 22 µM | 19.6 µM |
| CC(C)/C(Cl)=N\OC(NC(=O)P(=O)(c1ccccc1)c1ccccc1)(C(F)(F)F)C(F)(F)F | 42.2 µM | 27.6 µM | 22.8 µM | 35.3 µM | 63.8 µM | 28.4 µM | 53.7 µM | 31.9 µM | 37.8 µM | > 100 µM |  |  |  |  |  |  |
| Nc1nc(Cl)cc(NC23CC4CC(CC(C4)C2)C3)n1 | > 100 µM | > 100 µM | > 100 µM | > 100 µM | > 100 µM | > 100 µM | > 100 µM | > 100 µM | > 100 µM | > 100 µM |  |  |  |  |  |  |
| N#Cc1cc2c(n(C3OC(CO)C(O)C(O)C3O)c1=S)CCCCCC2 (stereo unspecified) | > 100 µM | > 100 µM | > 100 µM | > 100 µM | > 100 µM | > 100 µM | > 100 µM | > 100 µM | > 100 µM | > 100 µM |  |  |  |  |  |  |
| CCOC(=O)Nn1c(CC#N)nnc1Cc1ccccc1 | > 100 µM | > 100 µM | > 100 µM | > 100 µM | > 100 µM | > 100 µM | > 100 µM | > 100 µM | > 100 µM | > 100 µM |  |  |  |  |  |  |
| CCc1cc2c(c3c1CCCC3=O)CC1(Cc3ccc(C(=O)OC)cc3C1)C2 (stereo unspecified) | > 100 µM | > 100 µM | > 100 µM | > 100 µM | > 100 µM | > 100 µM | > 100 µM | > 100 µM | > 100 µM | > 100 µM |  |  |  |  |  |  |
| CC(=O)NC1C(OCc2ccccc2)OC(CO)C(O)C1OC(C)C(=O)NC(C(=O)NC(CCC(=O)NCCCCNc1c2ccccc2nc2cccc([N+](=O)[O-])c12)C(N)=O)C(C)C (stereo unspecified) | > 100 µM | 11.2 µM | 5.45 µM | 34.5 µM | 3.67 µM | 10.4 µM | 9.93 µM | 13.1 µM | 40.2 µM | > 38.2 µM |  |  |  |  |  |  |
| COc1ccc(Nc2ccc3ccccc3c2-c2c(O)ccc3ccccc23)cc1 | 36.5 µM | 51.1 µM | 32.2 µM | 37.2 µM | 29.4 µM | 23 µM | 30 µM | 35.9 µM | 38.5 µM | 34 µM |  |  |  |  |  |  |
| C=C=C(CC(CC(=C)Br)(C(=O)OC)C(=O)OC)S(=O)(=O)c1ccccc1 | 5.96 µM | 3.33 µM | 2.36 µM | 24.9 µM | 8.58 µM | 5.52 µM | 20.7 µM | 7.45 µM | 3.44 µM | > 100 µM |  |  |  |  |  |  |
| O=C1c2c(O)cccc2-c2nn(CCNCCO)c3ccc(NCCNCCO)c1c23 | > 100 µM | 1.1 µM | 0.895 µM | 0.405 µM | 1.94 µM | 5.8 µM | 0.934 µM | 1.17 µM | 70.5 µM | 4.61 µM |  |  |  |  |  |  |
| Cc1ccc(S(=O)CC(CF)OCn2cc(C)c(=O)[nH]c2=O)cc1 (stereo unspecified) | > 100 µM | > 100 µM | > 100 µM | > 100 µM | > 100 µM | > 100 µM | > 100 µM | > 100 µM | > 100 µM | > 100 µM |  |  |  |  |  |  |

Reference: PubChem BioAssay (NCI)
